The source of these data is patent US20120245031A1, “Pesticidal Mixtures” (BASF SE, priority 2009, published 2012).

Holding throughout (assay type): in vivo
Test [1] concerns wheat plants of the imidazolinone tolerant variety ‘BW755’. Briefly: Transpiration (water loss) of cut wheat plants as indicator of drought tolerance, fluxapyroxad / imazethapyr (Example 3). As to conditions: for Mean water loss / Observed efficacy: solo; for Mean water loss: 24 h; for Observed efficacy: decrease of water loss vs control. Here is the method:
(§1) The transpiration as an indicatior of drought tolerance of wheat plants treated or not treated with fluxapyroxad solo, imazethapyr solo, and mixtures thereof was assessed. 10 to 14 days old wheat plants were cut above the ground and placed into Eppendorf caps containing 2.2 ml of the test solution. The wheat plants were incubated for 24 h at 25° C. and 50% relative humidity in a growth chamber. The weight of the Eppendorf cap including the test solution but excluding the leaves was assessed before and after incubation. The difference in weight was recorded as the loss of water through transpiration. This assay is generally used to asses the drought tolerance of plants.
In the present example wheat plants of the imidazolinone tolerant variety ‘BW755’ were grown at 18° C. for 10 days in the greenhouse prior to the treatment and the incubation. 10 plants per treatment were treated and incubated as described. Fluxapyroxad and imazethapyr were dissolved in 0.5% DMSO. The 0.5% DMSO solution consisted of 0.5% DMSO dissolved in water. The tested concentrations are as described in table 4. Control plants were treated with the blank 0.5% DMSO solution only.
The efficacy of the tested compounds and mixtures was calculated as % of water loss compared to the control: […]
(§2) a corresponds to water loss of plants after incubation in the treated plants in g and b corresponds to water loss of plants after incubation in the control in g.

For test [2], the system named is potted imidazolinone tolerant wheat, variety ‘BW755’. Briefly: Greenhouse pot trial, total shoot biomass (dry weight) of wheat, fluxapyroxad / imazamox (Example 2). As to conditions: solo; for Shoot dry weight: 7 days following the last treatment; for Observed efficacy: increase of biomass vs untreated control. Here is the method:
(§3) Wheat was grown in 2010 in the greenhouse at the agricultural center at Limburgerhof, Germany. The imidazolinone tolerant variety ‘BW755’ was planted in pots. The trial was setup with 8 replications with one pot 10 plants each per replication.
The active ingredients were used as formulations. The formulations were used in the product rates given below and in table 3. The products were applied in a total spray volume of 375 l/ha. Products were diluted in water. The spray solution was applied in a spray cabinet using a spray boom with flat fan nozzles.
Imazamox was applied once as Raptor™ (120 g active per liter soluble concentrate) when the wheat plants had the first leaf fully developed (BBCH 11). Fluxapyroxd was applied once as an experimental emulsion concentrate (62.5 g active ingredient per liter) at 2 to 3 leaves fully developed (BBCH 12/13). The application of the mixture was carried out as a sequence, wherein Raptor™ was applied when the first leave had developed while the fluxapyroxad formulation was applied when 2-3 leaves had developed.
Total shoot biomass was assessed (table 3) by harvesting all plants of a pot 7 days following the last treatment (expressed as g per pot). Afterwards, dry weight of total shoot biomass per pot was evaluated. After measuring fresh weight, the samples were dried in a drying cabinet at 65° C. for two days. The efficacy was calculated as % increase of biomass in the treatments compared to the untreated control:
(§4) a corresponds to the biomass of the treated plants in g/pot and b corresponds to the biomass of the untreated (control) plants in g/pot

The test system is the same in test [3]. Briefly: Greenhouse pot trial, total shoot biomass (dry weight) of wheat, fluxapyroxad / imazethapyr (Example 4). As to conditions: solo; for Shoot dry weight: 7 days after the last treatment; for Observed efficacy: increase of biomass vs untreated control. Here is the method: as §3
The active ingredients were used as formulations. The formulations were used in the product rates given below and in table 6. The products were applied in a total spray volume of 375 l/ha. Products were diluted in water. The spray solution was applied in a spray cabinet using a spray boom with flat fan nozzles.
Imazethapyr was applied once as PIVOT 100 SL™ (100 g active per liter soluble concentrate) when the wheat plants had the first leaf fully developed (BBCH 11). Fluxapyroxd was applied once as an experimental emulsion concentrate (62.5 g active ingredient per liter) when 2 to 3 leaves were fully developed (BBCH 12/13). The application of the mixture was applied as a sequence of PIVOT 100 SL™ at the stage when the first leave had developed and while the fluxapyroxad formulation was applied when 2-3 leaves had developed.
Total shoot biomass was assessed (table 6) by harvesting all plants of a pot 7 days after the last treatment (expressed as g per pot). Dry weight of total shoot biomass per pot was evaluated. After measuring fresh weight, the samples were dried in a drying cabinet at 65° C. for two days. The efficacy was calculated as % increase of biomass in the treatments compared to the untreated control:
as §4

The test system of test [4] is wheat plants of the imidazolinone tolerant variety ‘BW755’. Briefly: Transpiration (water loss) of cut wheat plants as indicator for drought tolerance, fluxapyroxad / imazamox (Example 1). The following applies: solo; for Mean water loss: 24 h at 25° C.; for Observed efficacy: decrease of water loss vs control, 24 h. Here is the method: as §1, with “transpiration” for “transpiration as an indicatior of drought tolerance”, “solo, imazamox” for “solo, imazethapyr”, “was assessed as an indicator for drought tolerance.” for “was assessed.”, “the plant” for “the leaves”, “weight is” for “weight was”, “assay can be” for “assay is generally”
In the present example wheat plants of the imidazolinone tolerant variety ‘BW755’ were grown at 18° C. for 10 days in the greenhouse prior to the treatment and the incubation. 10 plants per treatment were treated and incubated as described. Fluxapyroxad and imazamox were dissolved in 0.5% DMSO. The 0.5% DMSO solution consisted of 0.5% DMSO dissolved in water. The tested concentrations are described in table 2. Control plants were treated with the blank 0.5% DMSO solution only.
The efficacy of the tested compounds and respective mixtures was calculated as % of water loss compared to the control: […]
as §2

Where [5] appears, read: 10 ppm, first experiment (table 4).
The mark [6] stands for this setting: 10 ppm, repeated experiment (table 5).
Setting [7] is: 50 ppm, first experiment (table 4).
The mark [8] stands for this setting: 100 ppm, first experiment (table 4).
Setting [9] is: 100 ppm, repeated experiment (table 5).
The mark [10] stands for this setting: 1 ppm, first experiment (table 4).
Where [11] appears, read: 500 ppm, first experiment (table 4).

`Cn1cc(C(=O)Nc2ccccc2-c2cc(F)c(F)c(F)c2)c(C(F)F)n1` [Fluxapyroxad, N-(3′,4′,5′-trifluorobiphenyl-2-yl)-3-difluoromethyl-1-methyl-1H-pyrazole-4-carboxamide]: the Mean water loss in test [1] (setting [5]) is given as 0.853 g; in test [1] (setting [6]), 1.266 g; in test [1] (setting [7]) it was 0.728 g; in test [1] (setting [8]) it was 0.647 g; in test [1] (setting [9]), 0.628 g; in test [4] (50 ppm) it was 0.794 g. Further, the Observed efficacy in test [1] (setting [5]) was determined as 14.59%; in test [1] (setting [6]), 10.46%; in test [1] (setting [7]) it was 27.16%; in test [1] (setting [8]) it was 35.22%; in test [1] (setting [9]), 55.60%; in test [2] (10.00 g/ha), 3.80%. The Observed efficacy was 1.41% in test [2] (50.00 g/ha); 1.30% in test [2] (100.00 g/ha); −4.75% in test [3] (10 g/ha); −7.88% in test [3] (50 g/ha); −3.16% in test [3] (100 g/ha); 17.68% in test [4] (50 ppm). In addition, the Observed efficacy entry in test [4] (50 ppm, listed as fluxapyroxad) is recorded as “about 18%”. Also, the Shoot dry weight came to 0.619 g/pot in test [2] (10.00 g/ha); 0.604 g/pot in test [2] (50.00 g/ha); 0.604 g/pot in test [2] (100.00 g/ha); 0.638 g/pot in test [3] (10 g/ha); 0.617 g/pot in test [3] (50 g/ha); 0.649 g/pot in test [3] (100 g/ha).
`COCc1cnc(C2=NC(C)(C(C)C)C(=O)N2)c(C(=O)O)c1` (stereo not shown) [Imazamox, imazamox]: the Shoot dry weight in test [2] (8.75 g/ha) is listed as 0.631 g/pot; in test [2] (17.50 g/ha), 0.559 g/pot; in test [2] (35.00 g/ha), 0.513 g/pot. The Observed efficacy in test [2] (8.75 g/ha) is on record as 5.83%; in test [2] (8.75 g/ha, listed as imazamox) it was “about 6%”; in test [2] (17.50 g/ha), −6.29%; in test [2] (35.00 g/ha), −13.93%; in test [4] (50 ppm) it was 5.92%; in test [4] (100 ppm), 11.32%. Besides, the Observed efficacy in test [4] (150 ppm) is −3.88%. Besides, the “reduction of dry biomass” value in test [2] (35 g imazamox per ha) is listed as “about 14%”. Further, the Mean water loss is reported as 0.907 g in test [4] (50 ppm), 0.855 g in test [4] (100 ppm) and 1.001 g in test [4] (150 ppm).
Regarding `CCc1cnc(C2=NC(C)(C(C)C)C(=O)N2)c(C(=O)O)c1` (stereo not shown) [Imazethapyr, imazethapyr], the Mean water loss in test [1] (setting [10]) was 1.249 g; in test [1] (setting [6]), 1.435 g; in test [1] (setting [11]), 0.878 g. Also, the Observed efficacy in test [1] (setting [10]) is −25.04%; in test [1] (setting [6]), −1.52%; in test [1] (setting [11]), 12.12%; in test [3] (17.5 g/ha) it was −0.72%; in test [3] (35 g/ha), −9.07%. The “effect on water loss, in words” value in test [1] (alone at 10 ppm, second experiment, table 5) is reported as “tended to be neutral”. For the same compound, the “reduction of dry biomass” value in test [3] (17.5 g imazethapyr per ha) is on record as “about 1%”; in test [3] (35 g imazethapyr per ha), “about 9%”. For the same compound, the Shoot dry weight in test [3] (17.5 g/ha) came out at 0.665 g/pot; in test [3] (35 g/ha) it was 0.609 g/pot.
